According to patent US20120178089A1, “MATERIALS AND METHODS FOR THE IDENTIFICATION OF DRUG-RESISTANT CANCERS AND TREATMENT OF SAME” (priority 2009, published 2012):
Entries after “also recorded” stand apart in the source; their conditions may differ.

Assays:
[1] = test system: NEK2-transfected ARP1, KMS28PE, H1299, MCF7, and MDA231 cells; test: Treatment of NEK2-overexpressing cancer cells with chemotherapeutic drugs; assay type: cell-based; conditions: 48 hours; for growth inhibition in NEK2-transfected cells compared with EV-transfected controls: P<0.05; for cell death in NEK2-transfected cells compared with EV-transfected controls: P<0.05, data not shown
Procedure: Treatment of NEK2-overexpressing MM cells with chemotherapeutic drugs. To determine the role of NEK2 in cancer drug-resistance, ARK, KMS28PE, OCI-MY5, H1299, and MCF7 cell lines were transfected with NEK2-cDNA to overexpress NEK2 by lentivirus expression vector system. 1×10^6 cells were treated with bortezomib at 5 nM for 48 hours in the cultures. Cell proliferation was evaluated by cell counting with a hemocytometer, and dead cells were determined by trypan blue staining, from which dead-cell fraction was calculated. Untreated cells and empty-vector (EV)-transfected cells with or without drug-treatment were used as controls.
To determine whether NEK2 over-expression is sufficient to confer drug-resistance in cancer cells, NEK2-transfected ARP1, KMS28PE, H1299, MCF7, and MDA231 cells were then treated with bortezomib at the dose of 4, 8, and 16 nM bortezomib for 48 hours and cell death was evaluated. EV-transfected cells with or without bortezomib served as controls.

[2] = biological target: Purified recombinant NEK2 kinase protein (Homo sapiens, UniProt P51955); conditions: read-out: IC50 (NEK2 kinase activity, titration assays); titration of screening hits
Chain of Purified recombinant NEK2 kinase protein (P51955 whole entry): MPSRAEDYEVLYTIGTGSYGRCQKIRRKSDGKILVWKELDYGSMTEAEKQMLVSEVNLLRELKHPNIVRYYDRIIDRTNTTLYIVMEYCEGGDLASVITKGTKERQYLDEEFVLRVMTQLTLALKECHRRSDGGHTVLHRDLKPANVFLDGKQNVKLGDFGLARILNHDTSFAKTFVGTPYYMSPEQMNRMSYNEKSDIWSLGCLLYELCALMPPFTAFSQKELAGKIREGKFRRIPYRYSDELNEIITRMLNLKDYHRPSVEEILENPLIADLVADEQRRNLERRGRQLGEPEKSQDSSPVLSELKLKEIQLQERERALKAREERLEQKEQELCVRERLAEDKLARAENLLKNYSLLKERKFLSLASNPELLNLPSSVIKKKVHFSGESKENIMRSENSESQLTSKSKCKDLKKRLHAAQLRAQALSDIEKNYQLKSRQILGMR
Procedure: NEK2 kinase activity assay. Purified recombinant NEK2 kinase protein (Cell Signaling Technology, Beverley, Mass.), was added to 96 well plates in the appropriate reaction buffer. Compounds were added to each well to a final concentration of 5 μM. Reaction mixtures were incubated for 15 minutes. The Kinase-Glo Luminescent Kinase Assay kit (Promega, Madison, Wis.) was used to determine the remaining ATP, which is inversely related to kinase activity.
By NEK2 kinase activity assay, we screened a Kinase Inhibitor Library from Calbiochem Inc. (San Diego, Calif.).

[3] = test system: NEK2 expression in MM, lung cancer and breast cancer cells; test: Inhibition of NEK2 expression in cancer cell lines (western blots); assay type: cell-based; conditions: especially NEK2 over-expressed
Procedure: FIG. 7a is a graph showing the results of screening a Kinase Inhibitor Library.
Western Blots. Western blots were performed to examine the protein levels in MM cells as previously described in Xiong, W., et al. Blood 112, 4235-4246 (2008) and Zhan, F., et al. Blood 109, 4995-5001 (2007). NEK2 antibodies were purchased from BD Biosciences Pharmingen (San Jose, Calif.); and all other primary antibodies were purchased from Cell Signaling Technology (Beverly, Mass.). β-actin was used to normalize the amount of protein in each sample.

[4] = test system: NEK2-transfected OCI-MY5, H1299 and MCF7 cells and EV control cells; test: Cytotoxic effects of KP372-1 on NEK2-overexpressing cell lines; assay type: cell-based; conditions: 5 μM, 5 days
Procedure: Cell proliferation assay. Briefly, cancer cells transfected with NEK2 cDNA or NEK2 shRNA and their relative controls of empty vector or Scrambled shRNA were seeded in 12-well plates at 0.2×10^6 per well. All tests were set in triplicate or quadruplicate. Cultured cells were counted with a hemocytometer to evaluate cellular proliferation, and dead cells were determined by trypan blue staining, from which dead-cell fraction was calculated. Cell proliferation assays were done at various time points for at least one week after infection or addition doxycycline one day.
We then determined the cytotoxic effects of this compound KP372-1 on the NEK2-overexpressing myeloma cell lines. Cultures of cell lines transfected with a vector for overexpression of NEK2 (myeloma OCI-MY5, a lung cancer cell line H1299, and a breast cancer cell line MCF7) were treated with 5 μM KP372-1 for 5 days. Cell proliferation and cell death were evaluated. Empty vector (EV)-transfected cancer cells with or without treatment were used as controls.

[5] = test system: KMS28PE and ARP1 cells, bortezomib-resistant (vel-R) and bortezomib-sensitive; test: KP372-1 treatment of bortezomib-resistant and bortezomib-sensitive myeloma cell lines; assay type: cell-based
Procedure: FIGS. 9a-9d are a series of graphs showing the treatment with KP372-1 overcomes drug-resistance in cancer cells. The myeloma cell lines KMS28PE (A & B) and ARP1 (C & D) including both bortezomib-sensitive and bortezomib-resistant (vel-R) were treated with KP372-1 at concentrations of 1 μM and 5 μM for 5 days.
To determine whether the NEK2 inhibitor KP372-1 can overcome drug resistance in KMS28PE- and ARP1-bortezomib resistant myeloma cell lines, we treated with KP372-1 at concentrations of 1 μM and 5 μM.

[6] = test system: 5TGM1 multiple myeloma cells; test: Efficacy of KP372-1 in a mouse model of multiple myeloma; assay type: in vivo, C57BL/KaLwRij mice; conditions: for tumor burden (tumor volumes): FIG. 10b
Procedure: Efficacy of KP372-1 in a mouse model of multiple myeloma. C57BL/KaLwRij mice (n=5 in each group) were injected with 1×10^6 5TGM1 cells through their tail vein. Seven days following tumor inoculation, tumor-bearing mice were treated with KP372-1, bortezomib or a combination of KP372-1 with bortezomib.
KP372-1 (NI-2) was used to treat 8 mice in each study group including four groups with single agent or combination with bortezomib (velcade). 1×10^6 5TGM1 multiple myeloma cells (in 100 μL PBS) were injected into each mouse through the tail vein and tumors were allowed to grow for 1 week. Treatment with bortezomib (1 mg/kg, 2 times/week, sc), NI-2 (0.8 mg/kg 3 times/week, sc), and the combination of KP372-1 (NI-2) with bortezomib (velcade) was performed 1 week after injection.
We also developed a bortezomib-resistant 5TGM1 line (5TGM1-DR) using a stepwise increase of the bortezomib concentration in the cultures. […] We examined the effects of KP372-1 treatment on the growth of 5TGM1 myeloma mouse. KP372-1 was given to 8 mice in each of the five groups, including single agent or combination treatment with bortezomib: 5TGM1-WT, 5TGM1-DR, 5TGM1-DR+KP372-1 (0.8 mg/kg, 3 times/week, s.c), 5TGM1-DR+bortezomib (1 mg/kg, 2 times/week, s.c), 5TGM1-DR+bortezomib+KP372-1.

RPMI8226 cells = test: Bortezomib treatment of bortezomib-resistant and parental RPMI8226 cells; assay type: cell-based; conditions: Homo sapiens
Description: (§1) To test the role of NEK2 in promoting cell growth, we over-expressed NEK2 in normal fibroblasts BJ, the MM cell lines ARP1, KMS28PE, and OCI-MY5, the lung cancer cell line H1299, and breast cancer cell line MDA231 by lentivirus-mediated NEK2-cDNA transfection (FIG. 2a). […] We subsequently examined the role of NEK2 in myeloma drug-resistance. We developed 2 bortezomib-resistant MM cell lines, RPMI 8226 and ARP1, by a stepwise increase of the bortezomib concentration in cultures.

ARP1 cells = test: Bortezomib treatment of bortezomib-resistant and parental ARP1 cells; assay type: cell-based
Description: as §1

5TGM1 cells = test: Bortezomib treatment of bortezomib-resistant and wild-type 5TGM1 cells; assay type: cell-based
[7] = NEK2-transfected and EV control cells
[8] = KP372-1 1 μM and 5 μM, 5 days, both vel-R and sensitive lines

Q: What does the source list for `COc1cc([C@@H]2c3cc4c(cc3[C@@H](O[C@@H]3O[C@@H]5CO[C@@H](C)O[C@H]5[C@H](O)[C@H]3O)[C@H]3COC(=O)[C@H]23)OCO4)cc(OC)c1O` [etoposide]?
A: growth inhibition in NEK2-transfected cells compared with EV-transfected controls ([1]; 100 nM): significantly less growth inhibition; cell death in NEK2-transfected cells compared with EV-transfected controls ([1]; 100 nM): significantly less

Q: For `COc1cccc2c1C(=O)c1c(O)c3c(c(O)c1C2=O)C[C@@](O)(C(=O)CO)C[C@@H]3O[C@H]1C[C@H](N)[C@H](O)[C@H](C)O1` [doxorubicin], which “growth inhibition in NEK2-transfected cells compared with EV-transfected controls” value ([1]; 100 nM) is on record?
A: The value was “significantly less growth inhibition”.

Q: And the “cell death in NEK2-transfected cells compared with EV-transfected controls” value ([1]; 100 nM)?
A: Its value is “significantly less”.

Q: How did the IC50 [2] turn out when `O=C1c2ccccc2-c2nc3nnnn3nc21.O=C1c2ccccc2-c2nn3nnnc3nc21` [KP372-1] was run?
A: Its IC50 is 67 nM.

Q: And the NEK2 expression [3]?
A: The NEK2 expression was “significantly inhibits NEK2 expression”.

Q: And the NEK2 expression ([3]; listed as NI-2)?
A: The NEK2 expression was “inhibits NEK2 expression”.

Q: And the “anti-proliferative and apoptotic activity, NEK2-transfected versus EV control cells” value [4]?
A: The value was “stronger anti-proliferative and apoptotic activity in the NEK2-transfected cells than the EV control cells”.

Q: What about the cell death [4, 7] of the same molecule?
A: The cell death was “induced significantly cell death; also recorded: induced cell growth inhibition and death”.

Q: What about the growth inhibition [4, 7] of the same molecule?
A: Its growth inhibition is “induced significantly cell death and growth inhibition”.

Q: And the cell death [5, 8]?
A: Its cell death is “cell death”.

Q: What about the growth inhibition [5, 8] of the same molecule?
A: The growth inhibition was “significant growth inhibition”.

Q: And the “tumor burden (tumor volumes)” value ([6]; P<0.05)?
A: The value was “reduced tumor burden”.

Q: And the “mouse survival, 5TGM1-DR mice” value ([6]; KP372-1 0.8 mg/kg, 3 times/week, s.c, P<0.01)?
A: The value was “able to overcome drug resistance and extend mouse survival”.

Q: What about the “growth of 5TGM1 tumors compared with untreated control” value ([6]; NI-2 0.8 mg/kg 3 times/week sc, bortezomib 1 mg/kg 2 times/week sc, start 1 week after injection, P<0.05) of the same molecule?
A: Its value is “significantly inhibited the growth of 5TGM1 tumors”.

Q: Which IC50 (RPMI8226 cells; RPMI-8226, parental RPMI8226 cells) does the source give for `CC(C)C[C@H](NC(=O)[C@H](Cc1ccccc1)NC(=O)c1cnccn1)B(O)O` [bortezomib] here?
A: Its IC50 is 4.75 nM.

Q: What about the IC50 (RPMI8226 cells; bortezomib-resistant RPMI8226 cells) of the same molecule?
A: Its IC50 is 250 nM.

Q: And the IC50 (ARP1 cells; ARP-1, bortezomib-resistant ARP1 cells)?
A: Its IC50 is 25.8 nM.

Q: And the IC50 (ARP1 cells; ARP-1, parental ARP1 cells)?
A: Its IC50 is 7.47 nM.

Q: What about the IC50 (5TGM1 cells; 5TGM1, 5TGM1-R (bortezomib-resistant)) of the same molecule?
A: The IC50 was 250 nM.

Q: What about the IC50 (5TGM1 cells; 5TGM1, wild-type 5TGM1 cells (5TGM1-WT)) of the same molecule?
A: Its IC50 is 5.26 nM.

Q: And the “growth inhibition in NEK2-transfected cells compared with EV-transfected controls” value ([1]; 8 nM)?
A: The value was “significantly less growth inhibition”.

Q: And the “cell death in drug-resistant cells compared with parental controls” value ([5]; bortezomib treatment)?
A: The value was “significantly less growth inhibition and cell death”.

Q: And the “growth inhibition in drug-resistant cells compared with parental controls” value ([5]; bortezomib treatment)?
A: Its value is “significantly less growth inhibition”.

Q: What about the “tumor burden (tumor volumes)” value ([6]; P<0.05) of the same molecule?
A: The value was “reduced tumor burden”.
